Key:
Type in all cases: cell-based, human
[1] = system: adipose mesenchymal stem cells; experiment: Morphology of stem cells under phase contrast microscope; settings: 4 days of culture; result in words
Protocol: (§1) The adipose mesenchymal stem cells of three persons, obtained by subculture to passage 3 in Example 1, were seeded into each of the following media and cultured for 4 days. During 4 days of culture, the morphology of the cells was observed. In addition, the size, viability and CDPL (cell population doubling level) of the cells were measured and expressed as mean values.
The morphology of the stem cells was observed under a phase contrast microscope and photographed (see FIG. 1).

[2] = system: adipose mesenchymal stem cells; experiment: Viability of stem cells (Luna automated cell counter); parameters: viability of stem cells: unit not given here; settings: for effect on the viability of the cells: 4 days of culture, result in words; for viability of stem cells: mean n=3
Protocol: as §1
(§2) While the adipose mesenchymal stem cells isolated in Example 1 was cultured in each of the media, the adipose mesenchymal stem cells were collected at different days of culture, and the viability, cell size and CPDL of the cells were measured. Also, telomerase activity was measured for the cells subcultured to passage 3. The Alnus japonica extract in medium 11 was prepared in the following manner.
The viability of the stem cells was measured using Luna™ automated cell counter (n=3).

[3] = system: adipose mesenchymal stem cells; experiment: Size of stem cells (Luna automated cell counter); settings: for effect on the size of the cells: 4 days of culture, result in words; for size of stem cells: mean n=3
Protocol: as §1, §2
The adipose mesenchymal stem cells isolated in Example 1 were seeded in each of the media, and then treated with trypsin at different days of culture. Next, the adipose mesenchymal stem cells were collected, and the size (μm) of the stem cells was measured using Luna™ automated cell counter (n=3).

[4] = system: adipose mesenchymal stem cells; experiment: Telomerase activity of stem cells (Telo TAGGG Telomerase PCR ELISA kit); parameters: telomerase activity (N = 3): unit not given here; settings: for telomerase activity (N = 3): cells cultured to passage 3
Protocol: as §2
Adipose mesenchymal stem cells isolated from persons in their 40s, 50s and 60s according to the method of Example 1 were cultured to passage 3 in each of the media shown in Table 4 above, and then the telomerase activity of the stem cells was measured using Telo TAGGG Telomerase PCR ELISA kit (Roche).

[5] = system: adipose mesenchymal stem cells; experiment: Cell population doubling level (CPDL) of stem cells
Protocol: as §1, §2
The cell population doubling level (CPDL) of the stem cells was calculated using the following equation: CPDL=[…], wherein Nfinal: the number of finally obtained cells; and Ninitial: the number of initially seeded cells.

[6] = Day 1 post seeding, 20 nM in M9 medium
[7] = Day 1 post seeding, 50 nM in M9 medium
[8] = Day 2 post seeding, 20 nM in M9 medium
[9] = Day 2 post seeding, 50 nM in M9 medium
[10] = Day 3 post seeding, 20 nM in M9 medium
[11] = Day 3 post seeding, 50 nM in M9 medium
[12] = Day 4 post seeding, 20 nM in M9 medium
[13] = Day 4 post seeding, 50 nM in M9 medium

## COC1=C(OC)C(=O)C(C/C=C(\C)CC/C=C(\C)CC/C=C(\C)CC/C=C(\C)CC/C=C(\C)CC/C=C(\C)CC/C=C(\C)CC/C=C(\C)CC/C=C(\C)CCC=C(C)C)=C(C)C1=O [Coenzyme Q10, coenzyme Q-10]
[1]
  effect on the morphology of the cells: no significant effect on the morphology
[2]
  effect on the viability of the cells: no significant effect on the viability
[3]
  effect on the size of the cells: no significant effect on the size
[4]; 5 μM in M9 medium
  telomerase activity (N = 3): 2.817
[4]; 10 μM in M9 medium
  telomerase activity (N = 3): 1.964

## Cc1c(-c2cnccn2)ssc1=S [Oltipraz, oltipraz]
[4]; 7 μM in M9 medium
  telomerase activity (N = 3): 1.968
[4]; 10 μM in M9 medium
  telomerase activity (N = 3): 2.137

## Oc1ccc(C=Cc2cc(O)cc(O)c2)cc1 [Resveratrol]
[4]; 1 μM in M9 medium
  telomerase activity (N = 3): 2.042
[4]; 2 μM in M9 medium
  telomerase activity (N = 3): 1.654

## CC(C)(C)c1cc(O)ccc1O [TBH-Q, T-BHQ]
[4]; 5 μM in M9 medium
  telomerase activity (N = 3): 2.524
[4]; 20 μM in M9 medium
  telomerase activity (N = 3): 2.838

## apelin
[1]
  effect on the morphology of the cells: no significant effect on the morphology
[2]
  effect on the viability of the cells: no significant effect on the viability
[2]; [6]
  viability of stem cells: 97.2
[2]; [7]
  viability of stem cells: 91.7
[2]; [8]
  viability of stem cells: 98.9
[2]; [9]
  viability of stem cells: 100
[2]; [10]
  viability of stem cells: 98.8
[2]; [11]
  viability of stem cells: 98.8
[2]; [12]
  viability of stem cells: 99.4
[2]; [13]
  viability of stem cells: 99.2
[3]
  effect on the size of the cells: no significant effect on the size
[3]; [6]
  size of stem cells: 19.0 μm
[3]; [7]
  size of stem cells: 18.6 μm
[3]; [8]
  size of stem cells: 18.3 μm
[3]; [9]
  size of stem cells: 15.6 μm
[3]; [10]
  size of stem cells: 18.2 μm
[3]; [11]
  size of stem cells: 18.0 μm
[3]; [12]
  size of stem cells: 18.5 μm
[3]; [13]
  size of stem cells: 17.9 μm
[5]; Day 0 post seeding, 20 nM in M9 medium
  cell population doubling level (CPDL): 0.00
[5]; Day 0 post seeding, 50 nM in M9 medium
  cell population doubling level (CPDL): 0.00
[5]; [6]
  cell population doubling level (CPDL): 0.89
[5]; [7]
  cell population doubling level (CPDL): 0.56
[5]; [8]
  cell population doubling level (CPDL): 2.84
[5]; [9]
  cell population doubling level (CPDL): 1.65
[5]; [10]
  cell population doubling level (CPDL): 6.54
[5]; [11]
  cell population doubling level (CPDL): 5.11
[5]; [12]
  cell population doubling level (CPDL): 9.28
[5]; [13]
  cell population doubling level (CPDL): 8.20
[5]; cultured in medium containing the substance, result in words
  ability to proliferate: proliferation ability efficiently increased
[4]; 5 nM in M9 medium
  telomerase activity (N = 3): 2.838
[4]; 20 nM in M9 medium
  telomerase activity (N = 3): 3.068
[4]; 20 nM, passage 3, result in words
  telomerase activity compared between media: highest telomerase activity
